Test results published in US11731977B2, “SGC stimulators” (Cyclerion Therapeutics, Inc., priority 2016, dated 2023).

The molecules below were run on cGMP in rat primary neurons (assay: cGMP neuronal cell-based assay (Example 3)). Details: Primary neuron; rat primary hippocampal neurons; 30 μM DETA-NO; cGMP by LC-MS/MS; 50% of high control (10 μM Compound Y); read-out: Abs EC50.
Protocol: Rat primary neurons were isolated from fetuses of 18-day pregnant Sprague-Dawley females. The fetuses were collected in Hanks' balanced salt solution (HBSS) and brains were rapidly removed. The cerebral hippocampi were isolated and mechanically fragmented. Further tissue digestion was performed with 0.25% (wt/vol) trypsin solution in HBSS without Ca2+ and Mg2+ for 15 min at 37° C. After trypsination, cells were washed and resuspended in neurobasal medium supplemented with 0.5 mM L-glutamine, 12.5 uM glutamic acid, 2% B-27 and 100 U/mL penicillin, and 100 μg/mL streptomycin. Cells were plated at a density of 4×10^4 cells/well in a poly-D-lysine coated 384-well flat clear-bottom plate (Corning Cat No 354662). Cells were incubated 6-7 days at 37° C. in a humidified chamber with 5% CO2. Media was removed and cells were washed 1× with HBSS containing Ca2+ and Mg2+, and replaced with 40 uL HBSS containing 0.5 mM IBMX, and incubated for 15 minutes at 37° C. 10 uL of a 5× stock of test compounds with diethylenetriamine NONOate (DETA-NO) was added. Final concentration of DETA-NO was 30 μM. Cells were incubated for 20 min at 37° C. Medium was removed, 50 uL of ice-cold 10% acetic acid was added, and incubated for 60 minutes at 4° C. Following centrifugation at 4° C. for 5 minutes at 1000×g to pellet cell debris, the supernatant was aspirated to a clean plate and the samples were analyzed for cGMP content. cGMP concentrations were determined from each sample using LC-MS/MS.
Data were normalized to a high control using the following equation: 100*(Sample−Low Control)/(High Control−Low Control), where the low control is the average of 15 samples treated with 1% DMSO, and the high control is the average of 15 samples treated with 10 μM a known sGC stimulator Compound Y. Data were fit using a 4-parameter fit (log(agonist) vs. response—variable slope) using GraphPad Prism Software v.5. n=2 for all compounds. The Absolute EC50 was interpolated from the curve fit and is defined as the concentration at which a given compound elicits 50% of the high control response. Compounds failing to elicit a minimum response of 50% are reported as >30 μM. For compounds run in duplicate or n higher than 2, the result herein given is the geometric mean of the several results obtained.

EC50, ≤ 100 nM:
Fc1ccccc1Cc1nc(-c2nc(C(F)(F)F)n[nH]2)cn2ccnc12 [Compound I-1, 8-(2-fluorobenzyl)-6-(3-(trifluoromethyl)-1H-1,2,4-triazol-5-yl)imidazo[1,2-a]pyrazine]
Fc1cccc(Cc2nc(-c3nc(C(F)(F)F)n[nH]3)cn3ccnc23)c1 [Compound I-2, 8-(3-Fluorobenzyl)-6-(3-(trifluoromethyl)-1H-1,2,4-triazol-5-yl)imidazo[1,2-a]pyrazine]
Fc1ccccc1Cc1nc(-c2nc(C(F)(F)F)n[nH]2)cn2ncnc12 [Compound I-16, 8-(2-Fluorobenzyl)-6-(3-(trifluoromethyl)-1H-1,2,4-triazol-5-yl)-[1,2,4]triazolo[1,5-a]pyrazine]
Fc1cccc(Cc2nc(-c3nc(C(F)(F)F)n[nH]3)cn3ccnc23)c1F [Compound I-10, 8-(2,3-Difluorobenzyl)-6-(3-(trifluoromethyl)-1H-1,2,4-triazol-5-yl)imidazo[1,2-a]pyrazine]
Fc1cccc(Cc2nc(-c3nc(C(F)F)n[nH]3)cn3ccnc23)c1 [Compound I-3, 6-(3-(Difluoromethyl)-1H-1,2,4-triazol-5-yl)-8-(3-fluorobenzyl)imidazo[1,2-a]pyrazine]
Fc1cccc(Cc2nc(-c3nc(C(F)F)n[nH]3)cn3ccnc23)c1F [Compound I-11, 8-(2,3-Difluorobenzyl)-6-(3-(difluoromethyl)-1H-1,2,4-triazol-5-yl)imidazo[1,2-a]pyrazine]
Fc1ccccc1Cc1nc(-c2nc(C(F)F)n[nH]2)cn2ccnc12 [Compound I-14, 8-(2-Fluorobenzyl)-6-(3-(difluoromethyl)-1H-1,2,4-triazol-5-yl)imidazo[1,2-a]pyrazine]
